# How the values were obtained:
# [1] = system: BDNF^Met/Met mice; test: Novelty-induced hypophagia after long-term fluoxetine in adult mice; format: in vivo; details: adult P60 BDNF^Met/Met mice; fluoxetine orally 18 mg/kg of body weight per day for 21 days
# Description: A common treatment for depression and anxiety disorders in humans is administering serotonin reuptake inhibitors (SSRI's), for which one postulated mechanism of action involves increasing BDNF levels (R. S. Duman, L. M. Monteggia, Biol Psychiatry 59, 1116 (Jun. 15, 2006)). Adult P60 BDNF^Met/Met mice were treated orally with fluoxetine (18 mg/kg of body weight per day) or vehicle for 21 days before assessment in novelty-induced hypophagia. In this conflict test, mice are trained to approach a reward (sweetened milk) in their home cage and then placed in a novel brightly lit cage. The latency to approach and drink the sweetened milk is a measure of the anxiety-related behavior associated with this task (S. C. Dulawa, K. A. Holick, B. Gundersen, R. Hen, Neuropsychopharmacology 29, 1321 (July, 2004)).
# [2] = system: P60 BDNF^Met/Met mice; test: Two anxiety tests, response to chronic fluoxetine; format: in vivo
# From the text: It was chosen to continue to use fluoxetine as it is the prototypic SSRI that has been established to increase BDNF levels, and for which a significant amount of clinical data on response to affective disorders.
# [3] = system: mice; details: fluoxetine treatment at P4-P21; Ansorge et al. 2004; cited from earlier work
# [4] = system: BDNF^Met mice; test: Elevated plus maze at P90 after early life fluoxetine (P21-P40); format: in vivo; details: fluoxetine 18 mg/kg per day via drinking water P21-P40, tested at P90
# From the text: (§1) FIG. 9. Anxiety-related behavior after early life flouxetine in BDNF Val66Met mice in the elevated plus maze test. (A). Percentage time spent in the open arm (B) and percentage of open arm entries in the plus maze, as well as (C) total distance traveled in wildtype) WT and BDNF^Met/Met (Met/Met) mice treated with water (H2O) or with flouxetine (FLX) from P21-P40. All results are presented as a mean±SEM determined from analysis of 5 mice/genotype (*p<0.05), Student's t test.
# (§2) The feasibility of these timed pharmacological studies was first assessed. To BDNFMet mice, chronic fluoxetine (18 mg/kg per day) was administered via the drinking water from P21 (post-weaning)-P40 (adolescence) (FIG. 8) for a duration of time established to produce increased BDNF levels and anti-anxiety effects in adult mice [Dulawa, S. C., Holick, K. A., Gundersen, B., and Hen, R. (2004). Effects of chronic fluoxetine in animal models of anxiety and depression. Neuropsychopharmacology 29, 1321-1330; Duman, R. S., and Monteggia, L. M. (2006). A neurotrophic model for stress-related mood disorders. Biol Psychiatry 59, 1116-1127].
# (§3) Early-life blockade of the 5-HT transporter alters emotional behavior in adult mice. Science 306, 879-881], which was not observed by this P21-P40 timed treatment.
# [5] = system: wildtype mice; test: as above; format: in vivo; details: fluoxetine 18 mg/kg per day via drinking water P21-P40, tested at P90
# From the text: as §1, §2, §3
compound,measurement,setting,value
CNCCC(Oc1ccc(C(F)(F)F)cc1)c1ccccc1 (centres unmarked) [fluoxetine],latency to drink in the novel cage,[1],did not significantly decrease
same,response to chronic fluoxetine as measured by two anxiety tests,[2],decreased response
same,anxiety-related behaviors,[3],increased anxiety-related behaviors
same,anxiety-related behavior in the elevated plus maze test,[4],rescue of altered anxiety-related behavior
same,anxiety-related behaviors in the elevated plus maze test,[5],No effects were observed
